In patent US20090288611A1, “Formula and method for treating water in fish tanks” (priority 2008, published 2009):

Test system: captive live fish
Assay: Holding captive live fish in water treated with isoeugenol
Type: in vivo
Source text: The first key ingredient of the chemical mixture for treating the water in fish tanks of the present invention is isoeugenol (2-Methoxy-4-propenylphenol; 4-hydroxy-3-methoxy-1-propenylbenzene; 4-propenylguaiacol) C10H1202. Isoeugenol is an essential oil derived from oil of clove that has anesthetizing capabilities for fish in water. In the preferred embodiment, the formula for maintaining the life of fish contains about 43 ppm±10% of isoeugenol to slow the metabolism of captive live fish.
The benefits of treating the water in which fish are held or transported with isoeugenol are threefold. First, the metabolism of the fish is slowed and therefore the fish require less oxygen. The result is that more live fish may be held in smaller volumes of water. Also, live fish with a slower metabolism are easier to handle and fewer injuries are sustained by the fish.

[1] = overdoses up to 10 times the preferred amount of isoeugenol

`CC=Cc1ccc(O)c(OC)c1` [isoeugenol, 2-Methoxy-4-propenylphenol] was tested, and the “effect on fish activity (sedation)” value (dosage rate of about 43 ppm±10% isoeugenol in the water) was “slow down fish activity sufficiently to allow handling of the live fish”, the “coagulation of hook wounds” value (fish held in water treated with isoeugenol, metabolism calmed) was “hook wounds appear to coagulate faster” and the “fish behaviour at overdose (equilibrium)” value [1] was “some fish may still roll over and lose equilibrium”. For the same compound, the “harm to fish at overdose” value [1] was “not harmful to the fish”.
